Where two headings read alike, the source gives them in different places.
Experiments:
[1] = molecular target: T1, Anaplastic Lymphoma Kinase (ALK) (Homo sapiens, UniProt Q9UM73); test: ALK kinase activity (summary Table 27); assay type: biochemical
T1 construct: illustrates the kinase domain of ALK (residues 1058-1623) which was used in these experiments; purchased Millipore; host or cells: Sf21 insect cells (baculovirus)

recombinant human ALK = recombinant human ALK (Homo sapiens, UniProt Q9UM73); test: biochemical; settings: for IC50: IC50 on ALK
Protocol: The substrate that was phosphorylated by the kinase, polyglutamate-tyrosine (PolyGT), was purchased from Sigma (P0275, lot 120M5007V).
All other reagents were purchased from Sigma Aldrich. A Tecan Ultra microplate reader with XFluor software (Tecan, V4.51) and RdrOle software (Tecan, V4.50) were used in this study.
ALK phosphorylated the polyGT substrate using the ATP cofactor and produced ADP. […] The reactions, in microtubes, were incubated for 60 minutes at 25° C. in a water bath. Following this 60 minute incubation, reactions were transferred to microplates and the kinase activity was evaluated using the ADP-glo system from Promega and monitored, in an endpoint assay, ADP produced when ALK phosphorylated the PolyGT substrate. Various controls were tested and included the assay components indicated in the columns of Table 9 below (where + indicates the component was included and an empty cell indicates it was not included).
Kinase assays were run in triplicate or quadruplicate in microplates. Following this, the ADP-glo detection system (Promega) was used to determine how much ADP had been produced. For 10 μL volume assays, to each microplate well containing 10 μL of kinase reaction was added ADP-glo reagent (10 μL), plates were spun in a table top centrifuge (1000 rpm (123×g) for 1 minute) to ensure no reagent remained on the well walls, and then agitated for 1 minute to ensure optimal mixing. Plates were incubated at 25° C. on a heat block for 40 minutes. Next, kinase detection reagent (20 μL) was added and, as above, centrifugation and agitation was repeated; plates were allowed to incubate at 25° C.±1° C. on a heat block for 40 minutes. Following the incubation of the kinase detection reagent, plates were read on a Tecan Ultra microplate reader. The Tecan Ultra contained a built-in plate definition file for the whole area 96-well white Corning plates but a plate definition file for the half area 96-well Corning plates was created using the RdrOle component of the Tecan Ultra software. For 25 μL volume assays, the procedure was as described above except that the ADP-glo reagent added to the 25 μL assay was 25 μL in volume and the kinase detection reagent was 50 μL in volume.
Therefore, each mole of polymer of 20,000 g/mole would contain approximately 28 moles of the glu-glu-glu-glu-tyr “subpolymer.” Typically, a 10 μL assay would contain […] of the polyGT substrate. […] This was a vast excess of possible tyrosine phosphorylation sites, ensuring that the substrate for phosphorylation was not rate limiting (assuming the higher mass range would produce an even larger excess of glu-glu-glu-glu-tyr “subpolymers”).
Data from ALK assays run on the Tecan Ultra microplate spectrophotometer were collected in Microsoft Excel. Error calculations and graphical representations were performed in Microsoft Office Excel (Microsoft Corporation, Redmond, Wash., USA). Determination of IC25, IC50 and IC75 values were accomplished using Origin Lab software (OriginLab Corporation, Northampton, Mass., USA).

γ-Glutamyltranspeptidase = γ-Glutamyltranspeptidase (Homo sapiens, UniProt P19440); test: γ-glutamyltranspeptidase enzyme activity (summary Table 27); assay type: biochemical
FTase = molecular target: T2, FTase (Homo sapiens, UniProt P49354+P49356); test: FTase-mediated farnesylation of Dansyl-GCVLS peptide; assay type: biochemical
T2 construct: purchased Abcam
T2 sequence (P49356 whole entry, one chain of several): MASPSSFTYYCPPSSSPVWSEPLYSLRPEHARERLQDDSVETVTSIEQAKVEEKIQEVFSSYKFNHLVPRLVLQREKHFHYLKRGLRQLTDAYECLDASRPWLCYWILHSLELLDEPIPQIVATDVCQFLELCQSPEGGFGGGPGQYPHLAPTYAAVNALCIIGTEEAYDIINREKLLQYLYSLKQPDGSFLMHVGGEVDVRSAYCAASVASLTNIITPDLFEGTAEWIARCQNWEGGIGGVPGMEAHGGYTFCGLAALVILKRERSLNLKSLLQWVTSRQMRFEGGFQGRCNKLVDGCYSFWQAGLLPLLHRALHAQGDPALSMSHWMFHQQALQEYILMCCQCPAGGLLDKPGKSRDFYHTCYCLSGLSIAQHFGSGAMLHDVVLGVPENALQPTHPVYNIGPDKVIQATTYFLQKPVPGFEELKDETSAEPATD

recombinant human ALK, sequence (Q9UM73 1058-1620 limits assumed): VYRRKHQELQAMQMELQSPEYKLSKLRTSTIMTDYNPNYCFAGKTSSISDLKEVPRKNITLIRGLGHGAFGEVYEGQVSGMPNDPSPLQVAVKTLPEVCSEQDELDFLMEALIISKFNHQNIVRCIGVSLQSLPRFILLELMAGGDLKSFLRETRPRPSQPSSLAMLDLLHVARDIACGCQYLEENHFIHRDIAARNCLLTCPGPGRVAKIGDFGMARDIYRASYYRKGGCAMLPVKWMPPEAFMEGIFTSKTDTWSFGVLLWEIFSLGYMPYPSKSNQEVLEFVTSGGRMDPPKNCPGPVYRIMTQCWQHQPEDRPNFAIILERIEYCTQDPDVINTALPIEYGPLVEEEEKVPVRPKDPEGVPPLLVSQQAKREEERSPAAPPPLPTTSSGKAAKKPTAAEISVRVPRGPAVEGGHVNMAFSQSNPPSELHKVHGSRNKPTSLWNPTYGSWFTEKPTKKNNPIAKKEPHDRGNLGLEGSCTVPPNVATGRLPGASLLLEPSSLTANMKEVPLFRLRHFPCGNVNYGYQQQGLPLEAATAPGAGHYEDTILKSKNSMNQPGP
T1 sequence (Q9UM73 1058-1620 limits assumed): as above
γ-Glutamyltranspeptidase, sequence (P19440 whole entry): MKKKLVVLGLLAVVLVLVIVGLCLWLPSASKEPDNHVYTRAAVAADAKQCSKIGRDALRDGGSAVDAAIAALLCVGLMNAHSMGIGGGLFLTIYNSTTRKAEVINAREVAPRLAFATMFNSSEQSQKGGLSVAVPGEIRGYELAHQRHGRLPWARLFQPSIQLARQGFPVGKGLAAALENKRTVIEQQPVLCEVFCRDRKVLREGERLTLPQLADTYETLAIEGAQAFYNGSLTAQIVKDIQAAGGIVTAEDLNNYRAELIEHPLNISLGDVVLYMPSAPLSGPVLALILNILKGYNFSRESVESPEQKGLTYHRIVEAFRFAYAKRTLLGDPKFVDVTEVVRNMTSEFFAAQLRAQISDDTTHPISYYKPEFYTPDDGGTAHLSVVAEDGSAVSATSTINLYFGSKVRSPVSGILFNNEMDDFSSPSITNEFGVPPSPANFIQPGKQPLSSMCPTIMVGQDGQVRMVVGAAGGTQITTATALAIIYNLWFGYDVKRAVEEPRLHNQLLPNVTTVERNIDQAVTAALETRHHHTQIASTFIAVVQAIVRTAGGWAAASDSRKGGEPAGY

## O=S(=O)([O-])CCSSCCS(=O)(=O)[O-].[Na+].[Na+] [Tavocept, disodium 2,2′-dithio-bis-ethane sulfonate]
[1]
  Effect on ALK kinase activity: resulting in inhibition of ALK kinase
Recombinant human ALK; 100 μM ATP, 5 mM Tavocept + 15 nM Crizotinib
  greater inhibition of ALK than Crizotinib alone: 16%
Recombinant human ALK; 100 μM ATP, 5 mM Tavocept + 30 nM Crizotinib
  greater inhibition of ALK than Crizotinib alone: 10%
Recombinant human ALK; 100 μM ATP, 10 mM Tavocept + 15 nM Crizotinib
  greater inhibition of ALK than Crizotinib alone: 29%
Recombinant human ALK; 100 μM ATP, 10 mM Tavocept + 30 nM Crizotinib
  greater inhibition of ALK than Crizotinib alone: 19%
Recombinant human ALK; 500 μM ATP, 5 mM Tavocept + 30 nM Crizotinib
  greater inhibition of ALK than Crizotinib alone: 11%
Recombinant human ALK; 500 μM ATP, 5 mM Tavocept + 65 nM Crizotinib
  greater inhibition of ALK than Crizotinib alone: 6%
Recombinant human ALK; 500 μM ATP, 10 mM Tavocept + 30 nM Crizotinib
  greater inhibition of ALK than Crizotinib alone: 20%
Recombinant human ALK; 500 μM ATP, 10 mM Tavocept + 65 nM Crizotinib
  greater inhibition of ALK than Crizotinib alone: 6%
Recombinant human ALK; 500 μM ATP, 20 mM Tavocept + 30 nM Crizotinib
  greater inhibition of ALK than Crizotinib alone: 30%
Recombinant human ALK; 500 μM ATP, 20 mM Tavocept + 65 nM Crizotinib
  greater inhibition of ALK than Crizotinib alone: 13%
Recombinant human ALK; 100 μM ATP
  IC50: 9.16 ± 2.91 mM
Recombinant human ALK; 500 μM ATP
  IC50: 20.8 ± 3.49 mM
Recombinant human ALK; read-out: greater inhibition of ALK than Crizotinib alone, 100 μM ATP, 5 mM Tavocept + 15 nM Crizotinib
  inhibition at 5000 µM: 16%
Recombinant human ALK; read-out: greater inhibition of ALK than Crizotinib alone, 100 μM ATP, 5 mM Tavocept + 30 nM Crizotinib
  inhibition at 5000 µM: 10%
Recombinant human ALK; read-out: greater inhibition of ALK than Crizotinib alone, 100 μM ATP, 10 mM Tavocept + 15 nM Crizotinib
  inhibition at 10000 µM: 29%
Recombinant human ALK; read-out: greater inhibition of ALK than Crizotinib alone, 100 μM ATP, 10 mM Tavocept + 30 nM Crizotinib
  inhibition at 10000 µM: 19%
Recombinant human ALK; read-out: greater inhibition of ALK than Crizotinib alone, 500 μM ATP, 5 mM Tavocept + 30 nM Crizotinib
  inhibition at 5000 µM: 11%
Recombinant human ALK; read-out: greater inhibition of ALK than Crizotinib alone, 500 μM ATP, 5 mM Tavocept + 65 nM Crizotinib
  inhibition at 5000 µM: 6%
Recombinant human ALK; read-out: greater inhibition of ALK than Crizotinib alone, 500 μM ATP, 10 mM Tavocept + 30 nM Crizotinib
  inhibition at 10000 µM: 20%
Recombinant human ALK; read-out: greater inhibition of ALK than Crizotinib alone, 500 μM ATP, 10 mM Tavocept + 65 nM Crizotinib
  inhibition at 10000 µM: 6%
Recombinant human ALK; read-out: greater inhibition of ALK than Crizotinib alone, 500 μM ATP, 20 mM Tavocept + 30 nM Crizotinib
  inhibition at 20000 µM: 30%
Recombinant human ALK; read-out: greater inhibition of ALK than Crizotinib alone, 500 μM ATP, 20 mM Tavocept + 65 nM Crizotinib
  inhibition at 20000 µM: 13%
γ-Glutamyltranspeptidase
  Effect on γ-glutamyltranspeptidase enzyme activity: heteroconjugates can inhibit γ-glutamyl-
FTase
  effect on FTase activity: Inhibition

From patent US20160106439A1, “PNEUMATIC TOURNIQUET” (BIONUMERIK PHARMACEUTICALS, INC., priority 2013, published 2016)
